Test results: ChEMBL document CHEMBL3352110, “Design, synthesis and in vitro evaluation of novel dehydroabietic acid derivatives containing a dipeptide moiety as potential anticancer agents” (Eur J Med Chem, 2015)

What was measured:
Type in all cases: functional, cell-based
[1] = Cytotoxicity against human HL7702 cells after 48 hrs by MTT assay; details: L02, 48 h
[2] = test system: HeLa; experiment: Cytotoxicity against human HeLa cells after 48 hrs by MTT assay
[3] = test system: NCI-H460; experiment: Cytotoxicity against human NCI-H460 cells after 48 hrs by MTT assay; details: NCI-H460, 48 h
[4] = test system: MGC-803; experiment: Cytotoxicity against human MGC803 cells after 48 hrs by MTT assay; details: MGC-803, 48 h

Row | SMILES | IC50 [1] | IC50 [2] | IC50 [3] | IC50 [4]
1 | COc1ccc(NC(=O)[C@@H](Cc2ccccc2)NC(=O)[C@]2(C)CCC[C@]3(C)c4ccc(C(C)C)cc4C(=O)C[C@@H]23)cc1 | 55.4 µM | 16.3 µM | 34.3 µM | 39.6 µM
2 | CC(C)c1ccc2c(c1)C(=O)C[C@H]1[C@](C)(C(=O)N[C@H](Cc3ccccc3)C(=O)Nc3ccccc3F)CCC[C@]21C | 53.3 µM | 25.9 µM | 61.4 µM | 18.9 µM
3 | COc1ccc(NC(=O)[C@H](Cc2ccccc2)NC(=O)[C@]2(C)CCC[C@]3(C)c4ccc(C(C)C)cc4C(=O)C[C@@H]23)cc1 | 59.6 µM | 52.3 µM | > 100 µM | 49 µM
4 | CC(C)c1ccc2c(c1)/C(=N\O)C[C@H]1[C@](C)(C(=O)N[C@H](Cc3ccccc3)C(=O)Nc3ccccc3F)CCC[C@]21C | 54.8 µM | 20.8 µM | 42.5 µM | 13.4 µM
5 | CC(C)c1ccc2c(c1)C(=O)C[C@H]1[C@](C)(C(=O)N[C@H](Cc3ccccc3)C(=O)Nc3ccc(Cl)cc3)CCC[C@]21C | 76.3 µM | 32.3 µM | 23.4 µM | 20.2 µM
6 | CC(C)c1ccc2c(c1)C(=O)C[C@H]1[C@](C)(C(=O)N[C@@H](Cc3ccccc3)C(=O)Nc3ccccc3F)CCC[C@]21C | 47.6 µM | 18.9 µM | 57.1 µM | 18.9 µM
7 | COc1ccccc1NC(=O)[C@@H](Cc1ccccc1)NC(=O)[C@]1(C)CCC[C@]2(C)c3ccc(C(C)C)cc3C(=O)C[C@@H]12 | 55.7 µM | 40.7 µM | 85.4 µM | 30.9 µM
8 | COc1cc(NC(=O)[C@H](Cc2ccccc2)NC(=O)[C@]2(C)CCC[C@]3(C)c4ccc(C(C)C)cc4C(=O)C[C@@H]23)cc(OC)c1OC | 69.5 µM | 49.6 µM | 54.6 µM | 21.3 µM
9 | COc1cc(NC(=O)[C@@H](Cc2ccccc2)NC(=O)[C@]2(C)CCC[C@]3(C)c4ccc(C(C)C)cc4/C(=N\O)C[C@@H]23)cc(OC)c1OC | 56.2 µM | 32 µM | 36.1 µM | 15.6 µM
10 | COc1ccc(NC(=O)[C@@H](Cc2ccccc2)NC(=O)[C@]2(C)CCC[C@]3(C)c4ccc(C(C)C)cc4/C(=N\O)C[C@@H]23)cc1 | 56.2 µM | 17.3 µM | 20.4 µM | 15 µM
11 | COc1cc(NC(=O)[C@@H](Cc2ccccc2)NC(=O)[C@]2(C)CCC[C@]3(C)c4ccc(C(C)C)cc4C(=O)C[C@@H]23)cc(OC)c1OC | 57.4 µM | 19.2 µM | 27.9 µM | 26.4 µM
12 | CC(C)c1ccc2c(c1)/C(=N\O)C[C@H]1[C@](C)(C(=O)N[C@H](Cc3ccccc3)C(=O)Nc3ccccc3Cl)CCC[C@]21C | 48.2 µM | 26.6 µM | 26.9 µM | 17 µM
13 | COc1ccc(NC(=O)[C@H](Cc2ccccc2)NC(=O)[C@]2(C)CCC[C@]3(C)c4ccc(C(C)C)cc4/C(=N\O)C[C@@H]23)cc1 | 49.6 µM | 10.9 µM | 32 µM | 14.6 µM
14 | CC(C)c1ccc2c(c1)CC[C@H]1[C@](C)(C(=O)O)CCC[C@]21C [DEHYDROABIETIC ACID] | – | – | – | > 100 µM
15 | CC(C)c1ccc2c(c1)C(=O)C[C@H]1[C@](C)(C(=O)N[C@H](Cc3ccccc3)C(=O)Nc3ccccc3)CCC[C@]21C | 53.3 µM | 57.8 µM | 51.9 µM | 30.5 µM
16 | CC(C)c1ccc2c(c1)/C(=N\O)C[C@H]1[C@](C)(C(=O)N[C@H](Cc3ccccc3)C(=O)Nc3ccc(Cl)cc3)CCC[C@]21C | 57.9 µM | 20.2 µM | 17.6 µM | 17.8 µM

Row | SMILES | IC50 [1] | IC50 [2] | IC50 [3] | IC50 [4]
17 | CC(C)c1ccc2c(c1)C(=O)C[C@H]1[C@](C)(C(=O)N[C@H](Cc3ccccc3)C(=O)Nc3ccc(F)cc3)CCC[C@]21C | 52.4 µM | 16.3 µM | 34.3 µM | 39.6 µM
18 | CC(C)c1ccc2c(c1)C(=O)C[C@H]1[C@](C)(C(=O)N[C@@H](Cc3ccccc3)C(=O)Nc3ccccc3)CCC[C@]21C | 51.6 µM | 29.1 µM | 29 µM | 27.6 µM
19 | CC(C)c1ccc2c(c1)/C(=N\O)C[C@H]1[C@](C)(C(=O)N[C@@H](Cc3ccccc3)C(=O)Nc3ccccc3F)CCC[C@]21C | 57.5 µM | 34.1 µM | 44.8 µM | 17.8 µM
20 | CC(C)c1ccc2c(c1)/C(=N\O)C[C@H]1[C@](C)(C(=O)N[C@H](Cc3ccccc3)C(=O)Nc3ccc(F)cc3)CCC[C@]21C | 53.8 µM | 20.6 µM | 58.6 µM | 17.3 µM
21 | CC(C)c1ccc2c(c1)C(=O)C[C@H]1[C@](C)(C(=O)N[C@H](Cc3ccccc3)C(=O)Nc3ccccc3Cl)CCC[C@]21C | 46.5 µM | > 100 µM | 50 µM | 29.7 µM
22 | CC(C)c1ccc2c(c1)C(=O)C[C@H]1[C@](C)(C(=O)N[C@@H](Cc3ccccc3)C(=O)Nc3ccc(F)cc3)CCC[C@]21C | 66.5 µM | 63.5 µM | 61.6 µM | 20.1 µM
23 | COc1ccccc1NC(=O)[C@@H](Cc1ccccc1)NC(=O)[C@]1(C)CCC[C@]2(C)c3ccc(C(C)C)cc3/C(=N\O)C[C@@H]12 | 57.9 µM | 18.4 µM | 37.1 µM | 18.7 µM
24 | CC(C)c1ccc2c(c1)/C(=N\O)C[C@H]1[C@](C)(C(=O)N[C@@H](Cc3ccccc3)C(=O)Nc3ccccc3)CCC[C@]21C | 45.9 µM | 16 µM | 41.3 µM | 16 µM
25 | O=c1[nH]cc(F)c(=O)[nH]1 [FLUOROURACIL] | – | 36.5 µM | – | 30.4 µM
26 | CC(C)c1ccc2c(c1)/C(=N\O)C[C@H]1[C@](C)(C(=O)N[C@@H](Cc3ccccc3)C(=O)Nc3ccc(F)cc3)CCC[C@]21C | 49.7 µM | 20.7 µM | 23.4 µM | 24.4 µM
27 | COc1ccccc1NC(=O)[C@H](Cc1ccccc1)NC(=O)[C@]1(C)CCC[C@]2(C)c3ccc(C(C)C)cc3C(=O)C[C@@H]12 | 57.5 µM | 14.7 µM | 33.8 µM | 39.4 µM
28 | COc1ccccc1NC(=O)[C@H](Cc1ccccc1)NC(=O)[C@]1(C)CCC[C@]2(C)c3ccc(C(C)C)cc3/C(=N\O)C[C@@H]12 | 58.8 µM | 19.3 µM | 31 µM | 11.9 µM
29 | COc1cc(NC(=O)[C@H](Cc2ccccc2)NC(=O)[C@]2(C)CCC[C@]3(C)c4ccc(C(C)C)cc4/C(=N\O)C[C@@H]23)cc(OC)c1OC | 49.6 µM | 25.9 µM | 36.6 µM | 17.5 µM
30 | CC(C)c1ccc2c(c1)/C(=N\O)C[C@H]1[C@](C)(C(=O)N[C@@H](Cc3ccccc3)C(=O)Nc3ccccc3Cl)CCC[C@]21C | 45.9 µM | 22.8 µM | 36.5 µM | 22.4 µM
31 | CC(C)c1ccc2c(c1)C(=O)C[C@H]1[C@](C)(C(=O)N[C@@H](Cc3ccccc3)C(=O)Nc3ccc(Cl)cc3)CCC[C@]21C | 57.8 µM | 36 µM | 49.1 µM | 29 µM
32 | CC(C)c1ccc2c(c1)/C(=N\O)C[C@H]1[C@](C)(C(=O)N[C@@H](Cc3ccccc3)C(=O)Nc3ccc(Cl)cc3)CCC[C@]21C | 60.8 µM | 101 µM | 102 µM | 25.8 µM
